Measured values from publication PMC8169660, “Flavin-dependent halogenases catalyze enantioselective olefin halocyclization” (Nature Communications, 2021).

Target: T1, RebH variant 4V + S (Lentzea aerocolonigenes, UniProt Q8KHZ8, F111S/N470S, form not given)
T1 construct: evolved RebH variant 4V + S; pET28b in E. coli BL21(DE3) + pGro7, Ni-NTA purified (His-tagged)
Assay: initial rates of bromolactonization, product 1a by UPLC
Format: biochemical
Details: NaBr (5 eq), NAD and FAD 100 uM, MBP-RebF 2.5 uM, glucose dehydrogenase, glucose 20 mM; 4V + S 20 uM; room temperature

T1 sequence (Q8KHZ8 whole entry F111S/N470S, form open): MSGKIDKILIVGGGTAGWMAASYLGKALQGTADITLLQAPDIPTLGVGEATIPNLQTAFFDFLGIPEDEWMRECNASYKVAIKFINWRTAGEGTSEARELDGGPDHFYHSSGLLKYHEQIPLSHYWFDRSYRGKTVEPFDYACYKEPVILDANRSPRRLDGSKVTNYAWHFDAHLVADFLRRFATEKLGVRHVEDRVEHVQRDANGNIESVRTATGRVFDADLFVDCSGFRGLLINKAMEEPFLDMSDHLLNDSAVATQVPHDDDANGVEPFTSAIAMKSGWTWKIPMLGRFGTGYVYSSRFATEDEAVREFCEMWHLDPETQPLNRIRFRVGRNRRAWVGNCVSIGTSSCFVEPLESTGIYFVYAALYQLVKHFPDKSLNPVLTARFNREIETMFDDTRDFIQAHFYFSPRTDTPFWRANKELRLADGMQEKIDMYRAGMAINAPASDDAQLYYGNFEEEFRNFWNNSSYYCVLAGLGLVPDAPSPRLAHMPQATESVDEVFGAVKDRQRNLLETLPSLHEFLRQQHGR

- Km: 470 µM
Compound: C=C(CCC(=O)O)c1ccc(OC)cc1 [compound 1, 4-methoxyphenyl-4-pentenoic acid]
